Results: ChEMBL document CHEMBL1139073, “Inhibition of Src kinase activity by 7-ethynyl-4-phenylamino-3-quinolinecarbonitriles: identification of SKS-927” (Bioorg Med Chem Lett, 2007)
In brackets after ≈: the same amount, converted by molar mass.

Tests used:
[1] = target: Proto-oncogene tyrosine-protein kinase Src (Homo sapiens, UniProt P12931); experiment: Inhibition of Src activity; type: functional
[2] = target: Proto-oncogene tyrosine-protein kinase Src (Rattus norvegicus, UniProt Q9WUD9); experiment: Inhibition of Src in rat fibroblasts
Chain of Proto-oncogene tyrosine-protein kinase Src (Rattus norvegicus, UniProt Q9WUD9) (Q9WUD9 2-536 limits assumed): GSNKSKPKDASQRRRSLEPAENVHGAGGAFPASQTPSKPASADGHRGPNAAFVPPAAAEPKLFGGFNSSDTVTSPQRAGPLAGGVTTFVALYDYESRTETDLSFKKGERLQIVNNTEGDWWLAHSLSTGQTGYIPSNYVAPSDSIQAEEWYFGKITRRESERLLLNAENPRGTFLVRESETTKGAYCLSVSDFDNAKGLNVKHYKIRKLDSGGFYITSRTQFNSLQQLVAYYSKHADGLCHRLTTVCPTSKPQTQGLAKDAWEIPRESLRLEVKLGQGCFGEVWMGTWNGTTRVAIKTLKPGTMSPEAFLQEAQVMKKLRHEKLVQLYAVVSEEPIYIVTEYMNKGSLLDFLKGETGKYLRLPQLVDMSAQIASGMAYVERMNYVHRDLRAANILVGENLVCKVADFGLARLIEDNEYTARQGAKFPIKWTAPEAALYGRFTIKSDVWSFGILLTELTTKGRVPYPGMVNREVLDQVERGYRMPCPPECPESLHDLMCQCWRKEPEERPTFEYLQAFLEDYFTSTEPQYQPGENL

[3] = target: RAC-alpha serine/threonine-protein kinase (Homo sapiens, UniProt P31749); experiment: Inhibition of AKT
Chain of RAC-alpha serine/threonine-protein kinase (P31749 whole entry): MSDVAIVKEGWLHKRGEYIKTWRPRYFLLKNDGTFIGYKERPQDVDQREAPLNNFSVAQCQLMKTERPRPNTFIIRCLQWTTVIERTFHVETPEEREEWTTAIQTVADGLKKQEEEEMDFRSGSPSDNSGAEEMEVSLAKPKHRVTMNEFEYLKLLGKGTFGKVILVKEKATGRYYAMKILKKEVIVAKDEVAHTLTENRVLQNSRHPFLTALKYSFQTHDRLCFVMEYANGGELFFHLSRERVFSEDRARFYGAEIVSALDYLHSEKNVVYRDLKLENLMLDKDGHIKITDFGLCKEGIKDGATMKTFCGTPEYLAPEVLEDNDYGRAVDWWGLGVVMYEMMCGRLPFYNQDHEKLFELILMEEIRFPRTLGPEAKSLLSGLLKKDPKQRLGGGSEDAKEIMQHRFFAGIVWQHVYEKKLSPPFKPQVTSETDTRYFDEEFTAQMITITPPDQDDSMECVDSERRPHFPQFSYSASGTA

[4] = target: Cyclin-dependent kinase 4 (Homo sapiens, UniProt P11802); experiment: Inhibition of CDK4
Chain of Cyclin-dependent kinase 4 (P11802 whole entry): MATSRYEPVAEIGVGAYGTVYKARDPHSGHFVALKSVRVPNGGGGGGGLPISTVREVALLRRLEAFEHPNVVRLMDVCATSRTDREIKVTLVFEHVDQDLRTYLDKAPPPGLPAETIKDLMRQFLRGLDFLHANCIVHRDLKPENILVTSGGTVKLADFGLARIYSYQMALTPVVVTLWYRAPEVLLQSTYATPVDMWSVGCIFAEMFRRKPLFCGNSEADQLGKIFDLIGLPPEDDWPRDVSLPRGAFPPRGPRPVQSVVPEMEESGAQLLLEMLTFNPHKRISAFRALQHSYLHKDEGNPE

[5] = Inhibition of IGFR; set-up: species or system Homo sapiens
[6] = target: Vascular endothelial growth factor receptor 2 (Homo sapiens, UniProt P35968); experiment: Inhibition of KDR
Chain of Vascular endothelial growth factor receptor 2 (P35968 whole entry): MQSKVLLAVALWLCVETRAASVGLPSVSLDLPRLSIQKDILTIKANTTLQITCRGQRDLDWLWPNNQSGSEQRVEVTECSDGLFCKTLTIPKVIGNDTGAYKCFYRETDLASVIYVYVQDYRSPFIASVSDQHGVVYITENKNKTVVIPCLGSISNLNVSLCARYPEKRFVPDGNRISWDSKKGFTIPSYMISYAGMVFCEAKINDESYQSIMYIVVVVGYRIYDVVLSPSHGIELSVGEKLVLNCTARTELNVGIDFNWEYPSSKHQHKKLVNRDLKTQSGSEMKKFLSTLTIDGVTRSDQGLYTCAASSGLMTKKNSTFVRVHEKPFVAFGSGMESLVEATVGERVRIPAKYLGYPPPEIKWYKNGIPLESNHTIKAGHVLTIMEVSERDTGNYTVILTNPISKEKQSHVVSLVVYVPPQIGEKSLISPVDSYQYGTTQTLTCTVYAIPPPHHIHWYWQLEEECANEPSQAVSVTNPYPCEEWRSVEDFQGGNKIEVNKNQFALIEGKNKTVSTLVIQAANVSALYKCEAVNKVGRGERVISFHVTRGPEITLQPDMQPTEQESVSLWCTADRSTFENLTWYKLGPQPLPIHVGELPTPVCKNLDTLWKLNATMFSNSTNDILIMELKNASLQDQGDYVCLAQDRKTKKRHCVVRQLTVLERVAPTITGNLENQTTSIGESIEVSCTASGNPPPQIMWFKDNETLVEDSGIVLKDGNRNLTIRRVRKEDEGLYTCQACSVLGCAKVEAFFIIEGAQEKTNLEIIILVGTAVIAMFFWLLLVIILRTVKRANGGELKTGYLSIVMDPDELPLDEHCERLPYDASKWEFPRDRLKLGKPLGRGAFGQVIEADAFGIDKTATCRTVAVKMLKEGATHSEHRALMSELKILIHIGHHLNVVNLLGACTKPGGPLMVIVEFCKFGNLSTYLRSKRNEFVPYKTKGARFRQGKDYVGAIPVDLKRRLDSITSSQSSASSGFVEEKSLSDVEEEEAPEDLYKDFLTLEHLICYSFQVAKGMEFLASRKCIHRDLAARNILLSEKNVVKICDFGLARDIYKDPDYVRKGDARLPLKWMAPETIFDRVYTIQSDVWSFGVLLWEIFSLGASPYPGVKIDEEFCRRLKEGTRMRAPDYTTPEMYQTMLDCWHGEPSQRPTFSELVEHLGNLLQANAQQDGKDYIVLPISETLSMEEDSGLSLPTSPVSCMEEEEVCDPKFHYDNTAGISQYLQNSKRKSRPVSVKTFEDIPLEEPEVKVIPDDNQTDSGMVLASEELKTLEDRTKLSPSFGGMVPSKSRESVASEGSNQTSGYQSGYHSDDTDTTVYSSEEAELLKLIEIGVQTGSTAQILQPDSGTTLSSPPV

[7] = Permeability across artificial membrane by PAMPA; type: ADME; conditions: read-out: permeability
[8] = Solubility at neutral pH; type: physicochemical
[9] = Solubility at pH 4.5; type: physicochemical; conditions: buffer
[10] = target: Epidermal growth factor receptor (Homo sapiens, UniProt P00533)
Chain of Epidermal growth factor receptor (P00533 whole entry): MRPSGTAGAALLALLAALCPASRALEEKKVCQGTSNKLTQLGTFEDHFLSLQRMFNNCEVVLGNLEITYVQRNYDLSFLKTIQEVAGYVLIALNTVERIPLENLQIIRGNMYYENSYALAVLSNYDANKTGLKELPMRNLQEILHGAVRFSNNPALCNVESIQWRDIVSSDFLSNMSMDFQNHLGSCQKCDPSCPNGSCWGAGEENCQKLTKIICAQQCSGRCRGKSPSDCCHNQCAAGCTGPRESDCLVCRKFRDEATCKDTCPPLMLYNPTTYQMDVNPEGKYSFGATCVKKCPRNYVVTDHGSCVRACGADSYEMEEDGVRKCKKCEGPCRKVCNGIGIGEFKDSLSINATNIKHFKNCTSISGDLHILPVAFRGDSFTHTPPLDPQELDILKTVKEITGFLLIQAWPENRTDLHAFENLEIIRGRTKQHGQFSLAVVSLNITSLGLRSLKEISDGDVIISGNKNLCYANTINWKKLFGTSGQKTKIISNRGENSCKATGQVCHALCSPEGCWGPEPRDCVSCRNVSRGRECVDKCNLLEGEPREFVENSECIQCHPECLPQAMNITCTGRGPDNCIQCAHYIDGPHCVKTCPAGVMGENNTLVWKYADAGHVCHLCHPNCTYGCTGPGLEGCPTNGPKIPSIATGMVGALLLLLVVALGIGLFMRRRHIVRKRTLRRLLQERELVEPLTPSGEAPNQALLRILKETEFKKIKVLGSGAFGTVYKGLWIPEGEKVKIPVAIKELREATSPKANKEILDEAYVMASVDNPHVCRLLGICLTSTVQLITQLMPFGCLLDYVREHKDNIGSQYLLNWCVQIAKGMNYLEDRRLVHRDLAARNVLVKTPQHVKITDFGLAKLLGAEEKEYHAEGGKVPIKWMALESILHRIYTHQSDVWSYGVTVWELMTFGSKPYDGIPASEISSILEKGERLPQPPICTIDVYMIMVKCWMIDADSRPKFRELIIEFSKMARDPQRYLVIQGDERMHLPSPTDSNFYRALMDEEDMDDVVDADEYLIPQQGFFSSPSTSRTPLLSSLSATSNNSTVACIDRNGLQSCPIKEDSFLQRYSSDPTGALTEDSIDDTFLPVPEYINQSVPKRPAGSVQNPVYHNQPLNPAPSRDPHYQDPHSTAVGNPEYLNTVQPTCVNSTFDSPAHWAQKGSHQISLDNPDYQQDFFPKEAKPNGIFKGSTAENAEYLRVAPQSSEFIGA

Chain of Proto-oncogene tyrosine-protein kinase Src (Homo sapiens, UniProt P12931) (P12931 2-536 limits assumed): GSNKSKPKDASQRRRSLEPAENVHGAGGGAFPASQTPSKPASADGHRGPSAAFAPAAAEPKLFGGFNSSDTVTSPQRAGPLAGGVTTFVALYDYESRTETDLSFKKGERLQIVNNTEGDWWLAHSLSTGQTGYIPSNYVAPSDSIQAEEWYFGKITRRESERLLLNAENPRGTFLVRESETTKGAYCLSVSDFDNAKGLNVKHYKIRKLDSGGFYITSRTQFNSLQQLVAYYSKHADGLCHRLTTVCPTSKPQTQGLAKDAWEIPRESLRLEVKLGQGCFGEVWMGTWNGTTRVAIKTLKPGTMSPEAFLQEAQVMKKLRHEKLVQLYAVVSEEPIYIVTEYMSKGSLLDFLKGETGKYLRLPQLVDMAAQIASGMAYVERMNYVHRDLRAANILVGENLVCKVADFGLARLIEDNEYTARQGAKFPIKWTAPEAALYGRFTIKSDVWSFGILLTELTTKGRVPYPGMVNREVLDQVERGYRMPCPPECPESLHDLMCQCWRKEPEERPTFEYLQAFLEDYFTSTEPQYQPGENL

| SMILES | IC50 [1] | IC50 [2] | further results |
| --- | --- | --- | --- |
| COc1cc(Nc2c(C#N)cnc3cc(C#CCN4CCN(C)CC4)c(OC)cc23)c(Cl)cc1Cl | 11 nM | 740 nM |  |
| COc1cc(Nc2c(C#N)cnc3cc(C#CCCN4CCNCC4)c(OC)cc23)c(Cl)cc1Cl | 5.4 nM | 520 nM |  |
| CCOc1cc2c(Nc3cc(OC)c(Cl)cc3Cl)c(C#N)cnc2cc1C#CCCN1CCN(C)CC1 | 4.1 nM | 130 nM |  |
| COc1cc(Nc2c(C#N)cnc3ccc(C#CCCN4CCN(C)CC4)cc23)c(Cl)cc1Cl | 230 nM | 3900 nM |  |
| COc1cc(Nc2c(C#N)cnc3cc(C#CCCN4CCN(C)CC4)ccc23)c(Cl)cc1Cl | 28 nM | 1700 nM |  |
| COc1cc(Nc2c(C#N)cnc3cc(C#CCCN4CCOCC4)c(OC)cc23)c(Cl)cc1Cl |  | 190 nM |  |
| COc1cc2c(Nc3ccc(Cl)cc3Cl)c(C#N)cnc2cc1C#CCCN1CCN(C)CC1 | 8.7 nM | 430 nM |  |
| COc1cc2c(Nc3cc(OC)c(OC)c(OC)c3)c(C#N)cnc2cc1C#CCCN1CCN(C)CC1 | 21 nM | 590 nM |  |
| COc1cc(Nc2c(C#N)cnc3cc(C#CCCN(C)C)c(OC)cc23)c(Cl)cc1Cl | 4.9 nM | 250 nM |  |
| COc1cc(Nc2c(C#N)cnc3cc(C#CCCN4CCN(C)CC4)c(OC)cc23)c(Cl)cc1Cl | 3.9 nM | 73 nM | IC50 [3]: > 5000 nM; IC50 [4]: > 5000 nM; IC50 [5]: > 5000 nM; IC50 [6]: > 5000 nM; Papp [7]: 6.8 ×10⁻⁶ cm/s; solubility [8]: 5 µg/mL (≈ 9.53 µM); solubility [9]: > 100 µg/mL; IC50 [10]: 720 nM |
| COc1cc(Nc2c(C#N)cnc3cc(C#CCCN4CCN(C)CC4)ccc23)cc(OC)c1OC | 220 nM | 2100 nM |  |
